Earlier results on two molecules are cited in patent publication US9023417B2, “Use of a polyamine-poor composition for the production of a medical human food” (Univeriste de Rennes 1, priority 2003, dated 2015).

The series relates to Escherischia coli.

With `C[C@](N)(CCCN)C(=O)O` [Alpha-methylornithine, alpha-methylornithine], the “inhibition of the synthesis of polyamines in Escherischia coli” value is on record as “inhibiting the synthesis of polyamines”.

As for `NCCC[C@](N)(C(=O)O)C(F)F` [a-DFMO, 2-difluoromethylornithine], the “inhibition of the synthesis of polyamines in Escherischia coli” value is on record as “not the case”.
